# According to patent publication US8911953B2, “TDF-related compounds and analogs thereof, analogs and bioactive fragments” (Thrasos Innovation, Inc., priority 2005, dated 2014):
# “Also recorded” adds a separate entry of the source. Positions of bridges follow the written chain, without caps; N, C: chain ends. No end group written: not given here.
# B1: BMP-7: recombinant human mature BMP-7 (BMP-7 or TDF-1), positive control therapy (protein)
# chain: STGSKQRSQNRSKTPKNQEALRMANVAENSSSDQRQACKKHELYVSFRDLGWQDWIIAPEGYAAYYCEGECAFPLNSYMNATNHAIVQTLVHFINPETVPKPCCAPTQLNAISVLYFDDSSNVILKKYRNMVVRACGCH
# Assays:
# [1] = system: LNCaP human prostate cancer cells; assay: Smad phosphorylation in LNCaP prostate cancer cells (Western blot); assay type: cell-based; details: for Smad 1, 5, 8 phosphorylation on co-administration: TDFRP compound co-administered with BMP-6, LNCaP cells; for Smad phosphorylation and activation: single agent, cultured LNCaP cells
# Protocol: The detection of Smad phosphorylation by Western analysis, for example in LNCaP (prostate cancer cells) or EC (vascular endothelial cells) in culture medium can be examined after exposure to varying concentrations of TDFRP or control compounds. BMP-7 serves as a positive control. Cells are lysed in RIPA lysis buffer (50 mM Tris-HCl at pH 8.0, 150 mM NaCl, 1% NP-40, 0.5% sodium deoxycholate, 0.1% SDS) containing 1 mM PMSF, 1 mM sodium orthovanadate, and 10 ug/mL proteinase inhibitor cocktail. Lysates are incubated on ice for 15 minutes, centrifuged, and transferred supernatant to a clean tube. 50 to 100 ug is used for analysis by SDS-PAGE. Resolved proteins are electro transferred onto PVDF membrane. The blot is blocked by incubating in 3% non-fat dry milk prepared in PBS at room temperature for 1 hour with constant slow agitation. The blot is incubated with 1-2 ug/mL of primary antibody (rabbit anti-phospho-Smad 1) prepared in PBS-milk, overnight with agitation at 4 degree C., washed twice with PBS, and incubated with secondary antibody (anti rabbit HRP conjugated IgG, 1:3000 dilution) at room temperature for 2 hours with agitation. After washing in PBS-0.05% Tween 20 for 5 minutes and rinsing, Smad phosphorylation is detected via an HRP reaction according to manufacturer's instructions (FIGS. 2, 3, 18, 2X).
# For detection of Smad phosphorylation by Western analysis, LNCaP (prostate cancer cells) or EC (vascular endothelial cells) in culture medium are exposed to varying concentrations of TDFRP or control compounds. BMP-7 served as a positive control. Cells are lysed in RIPA lysis buffer (50 mM Tris-HCl at pH 8.0, 150 mM NaCl, 1% NP-40, 0.5% sodium deoxycholate, 0.1% SDS) containing 1 mM PMSF, 1 mM sodium orthovanadate, and 10 ug/mL proteinase inhibitor cocktail. Lysates are incubated on ice for 15 minutes, centrifuged, and transferred supernatant to a clean tube. 50 to 100 ug is used for analysis by
# SDS-PAGE. Resolved proteins are electro transferred onto PVDF membrane. The blot is blocked by incubating in 3% non-fat dry milk prepared in PBS at room temperature for 1 hour with constant slow agitation. The blot is incubated with 1-2 ug/mL of primary antibody (rabbit anti-phospho-Smad 1) prepared in PBS-milk, overnight with agitation at 4 degree C., washed twice with PBS, and incubated with secondary antibody (anti rabbit HRP conjugated IgG, 1:3000 dilution) at room temperature for 2 hours with agitation. After washing in PBS-0.05% Tween 20 for 5 minutes and rinsing, Smad phosphorylation is detected via an HRP reaction according to manufacturer's instructions (FIGS. 3, 27).
# BMP signaling molecules co-administered with TDFRP compounds show synergistic or enhanced downstream signaling as detected by Smad phosphorylation. Smad phosphorylation was assessed by Western analysis in LNCaP (prostate cancer cells) or EC (vascular endothelial cells) cells in culture medium exposed to varying concentrations of TDFRP or control compounds. BMP-7 served as a positive control. Cells are lysed in RIPA lysis buffer (50 mM Tris-HCl at pH 8.0, 150 mM NaCl, 1% NP-40, 0.5% sodium deoxycholate, 0.1% SDS) containing 1 mM PMSF, 1 mM sodium orthovanadate, and 10 ug/mL proteinase inhibitor cocktail. Lysates are incubated on ice for 15 minutes, centrifuged, and transferred supernatant to a clean tube. 50 to 100 ug is used for analysis by SDS-PAGE. Resolved proteins are electro transferred onto PVDF membrane. […]
# NTN mice = assay: Nephrotoxic serum nephritis (NTN) model of chronic renal failure; assay type: in vivo, mouse; details: oral 5 mg/kg/24 hr, weeks 6-9
# From the text: Attenuation of renal fibrosis progression by TDFRP compound in the chronic renal failure mouse model, nephrotoxic serum nephritis (NTN). A: NTN Model Experimental Protocol. Nephrotoxic serum was given intravenously on Day 0 (D0) and animals were sacrificed either at 6 weeks or 9 weeks. Two different drug regimens were used: treatment from weeks 1-6 or from weeks 6-9. B: Kidney section of 6-9 week, vehicle-treated […] animal, C: Kidney section of animal received oral administration of TDFRP compound (SEQ ID NO 45) (5 mg/kg/24 hr) from weeks 6-9.
# Renal fibrosis involves interestitial fibrosis, tubular atrophy, and glomerulosclerosis. The mouse nephrotoxic serum nephritis (NTN) renal fibrosis model mimics human chronic renal injury. NTN mice develop glomerulonephritis following injection with nephrotoxic serum (NTS), which progresses to tubulointerstitial disease and eventually renal fibrosis after 6 weeks (see Lloyd, et al. (1997) J. Exp. Med. 185, 1371-1380.; Zeisberg et al. (2003) Nat. Med. 9, 964-968.)
# Nephrotoxic serum nephritis (NTN) is a model of progressive chronic renal injury. Mice given injections of nephrotoxic serum (NTS) develop glomerulonephritis, leading to tubulointerstitial disease associated with EMT, and ultimately renal fibrosis, over a period of about six weeks. […] In these studies, BMP-7 was able to restore expression of E-cadherin proteins in previously damaged tubules. […] For a review of the above see, Zeisberg et al., Nature Medicine, 9; 7 pp 964-968, (2003) and Kalluri et al., J. Clin Investigation 112:1776-1784 (2003).
# [2] = system: renal tubular epithelial cells; details: 100 ng/ml, 48 hours; cited from earlier work
Molecule,"Smad 1, 5, 8 phosphorylation on co-administration [1]","Smad 1, 5, 8 phosphorylation on co-administration ([1]; listed as SEQ ID NO: 45)",Smad phosphorylation and activation [1],Smad phosphorylation and activation ([1]; listed as SEQ ID NO: 45),glomerulosclerosis (NTN mice),matrix deposition (NTN mice),tubular atrophy (NTN mice),progression of renal fibrosis (NTN mice; 5 mg/kg),TGF-beta1 induced EMT [2]
CYFDDSSNVLCKKYRS (disulfide 1-11 (inferred); not fully specified) [SEQ ID NO:45],enhanced,enhanced or synergistic activity,induced,"phosphorylation and activation of Smad1 and Smad5; also recorded: Smad 1, 5, 8 phosphorylation and activation",attenuated the severity of glomerulosclerosis,attenuated the amount of matrix deposition,attenuated the severity of tubular atrophy,significantly attenuated,
B1,,,,,,,,,reverses
